Series [1] in a line: 24 h organ biodistribution in mice with femoral fracture. The note with it: i.v. The class given is in vivo, CD4 Swiss mice.
A short description of a further series: solubility in water. The following applies: 6BIO by itself, result in words. The class given is physicochemical.

For the substance 6’-bromoindirubin-3’-oxime [6BIO], in series [1] (125I-labelled analogues), the “drug uptake in the fractured femur over the healthy femur” value was “no statistical difference”. Moreover, in series [1] (125I-labelled, result in words), the “accumulation in the lungs, liver, and spleen” value was “high accumulation”. Besides, the solubility in water result in “solubility in water” is “only sparingly soluble in water”.

For the origin of these results see paper PMC4800810 (Biomacromolecules, 2015).
